Test results published in PubChem BioAssay AID228 (DTP/NCI, 2004).
Where “and” joins values, the source holds several entries; their conditions need not be identical. Equal values may be shown once. Records with an inconclusive call do not appear. Starred links: 1 amine or outer side, 2 acyl side, 3 side chain; linkers in the order of their positions; H or OH if unused. Positions of bridges follow the written chain, without caps; N, C: chain ends. Non-standard residues stand in square brackets, D forms with d. Residues, ends and D or L forms follow the SMILES beside them. Chains are numbered I, II in the order given. Actinocin(9to1) = Cc1c2oc3c(C)ccc(C(=O)[*:1])c3nc-2c(C(=O)[*:2])c(N)c1=O; aThr = C[C@H](O)[C@H](N)C(=O)O; NMeV = CN[C@H](C(=O)O)C(C)C; Sar = CNCC(=O)O

System: BDF1 mice, Friend leukemia sc, tumor weight T/C
Assay: NCI In Vivo Anticancer Drug Screen. Data for tumor model Friend Virus Leukemia (Solid) (subcutaneous) in B6D2F1 (BDF1) mice
Settings: endpoint: mean tumor weight, higher = larger tumour
Procedure: The antitumor activity of compounds was measured in mice bearing transplantable tumors. Survival or tumor size were measured and the results are expressed as the measurement made in the treated group (T) divided by the measurement made in the vehicle treated control group (C). The tumor model used in this assay is Friend Virus Leukemia (Solid) (subcutaneous) in B6D2F1 (BDF1) mice

[1] = dose: 10.0 mg/kg/injection, schedule: Q01DX011 (ip), vehicle: carboxymethylcellulose (CMC)
[2] = dose: 50.0 mg/kg/injection, schedule: Q01DX011 (ip), vehicle: carboxymethylcellulose (CMC)
[3] = dose: 62.0 mg/kg/injection, schedule: Q01DX011 (ip), vehicle: carboxymethylcellulose (CMC)
[4] = dose: 125.0 mg/kg/injection, schedule: Q01DX011 (ip), vehicle: carboxymethylcellulose (CMC)
[5] = dose: 20.0 mg/kg/injection, schedule: Q01DX011 (ip), vehicle: carboxymethylcellulose (CMC)
[6] = dose: 40.0 mg/kg/injection, schedule: Q01DX011 (ip), vehicle: carboxymethylcellulose (CMC)
[7] = dose: 80.0 mg/kg/injection, schedule: Q01DX011 (ip), vehicle: carboxymethylcellulose (CMC)
[8] = dose: 250.0 mg/kg/injection, schedule: Q01DX011 (ip), vehicle: carboxymethylcellulose (CMC)
[9] = dose: 500.0 mg/kg/injection, schedule: Q01DX011 (ip), vehicle: carboxymethylcellulose (CMC)
[10] = dose: 37.5 mg/kg/injection, schedule: Q01DX011 (ip), vehicle: carboxymethylcellulose (CMC)
[11] = dose: 75.0 mg/kg/injection, schedule: Q01DX011 (ip), vehicle: carboxymethylcellulose (CMC)
[12] = dose: 150.0 mg/kg/injection, schedule: Q01DX011 (ip), vehicle: carboxymethylcellulose (CMC)
[13] = dose: 18.75 mg/kg/injection, schedule: Q01DX011 (ip), vehicle: carboxymethylcellulose (CMC)

`OCC1OC(n2cnc3c(=S)nc[nH]c32)C(O)C1O` (centres undefined) was tested, and the T/C (dose: 0.1 mg/kg/injection, schedule: Q01DX011 (ip), vehicle: carboxymethylcellulose (CMC)) was 82 % of control and 92 % of control, the T/C (dose: 0.25 mg/kg/injection, schedule: Q01DX011 (ip), vehicle: carboxymethylcellulose (CMC)) was 45 % of control and the T/C [1] was 54 % of control. The T/C (dose: 15.0 mg/kg/injection, schedule: Q01DX011 (ip), vehicle: carboxymethylcellulose (CMC)) was 1 % of control and 8 % of control, the T/C (dose: 25.0 mg/kg/injection, schedule: Q01DX011 (ip), vehicle: carboxymethylcellulose (CMC)) was 17 % of control and the T/C [2] was 13 % of control. The T/C [3] was 2 % of control, the T/C (dose: 100.0 mg/kg/injection, schedule: Q01DX011 (ip), vehicle: carboxymethylcellulose (CMC)) was 8 % of control and the T/C [4] was 1 % of control.

For `CC(=O)[C@H]1CC[C@H]2[C@@H]3C[C@H](C)C4=CC(=O)CC[C@]4(C)[C@@]3(F)[C@@H](O)C[C@]12C`, the T/C (dose: 6.0 mg/kg/injection, schedule: Q01DX011 (sc), vehicle: steriod suspending solution) was 163 % of control, the T/C (dose: 8.0 mg/kg/injection, schedule: Q01DX011 (sc), vehicle: steriod suspending solution) was 162 % of control and the T/C (dose: 12.0 mg/kg/injection, schedule: Q01DX011 (sc), vehicle: steriod suspending solution) was 151 % of control. For the same molecule, the T/C (dose: 16.0 mg/kg/injection, schedule: Q01DX011 (sc), vehicle: steriod suspending solution) was 80 % of control, the T/C (dose: 50.0 mg/kg/injection, schedule: Q01DX011 (sc), vehicle: steriod suspending solution) was 66 % of control and 43 % of control and the T/C (dose: 100.0 mg/kg/injection, schedule: Q01DX011 (sc), vehicle: steriod suspending solution) was 22 % of control and 47 % of control. For the same molecule, the T/C (dose: 200.0 mg/kg/injection, schedule: Q01DX011 (sc), vehicle: steriod suspending solution) was 46 % of control.

With `CCN(CC)c1ccc(/C=C/c2ccnc3ccccc23)cc1` the T/C (dose: 1.5 mg/kg/injection, schedule: Q01DX011 (ip), vehicle: carboxymethylcellulose (CMC)) was 202 % of control, the T/C (dose: 3.0 mg/kg/injection, schedule: Q01DX011 (ip), vehicle: carboxymethylcellulose (CMC)) was 280 % of control and the T/C (dose: 12.0 mg/kg/injection, schedule: Q01DX011 (ip), vehicle: carboxymethylcellulose (CMC)) was 106 % of control.

`CN(N=O)C(=O)Nc1c[nH]c(=O)[nH]c1=O` was tested, and the T/C (dose: 5.0 mg/kg/injection, schedule: Q01DX011 (ip), vehicle: carboxymethylcellulose (CMC)) was 108 % of control, the T/C [1] was 93 % of control and the T/C [5] was 91 % of control. The T/C [6] was 39 % of control, the T/C (dose: 60.0 mg/kg/injection, schedule: Q01DX011 (ip), vehicle: carboxymethylcellulose (CMC)) was 45 % of control and the T/C [7] was 23 % of control.

With `NC(=O)NO` the T/C (dose: 16.0 mg/kg/injection, schedule: Q01DX011 (ip), vehicle: carboxymethylcellulose (CMC)) was 91 % of control, the T/C (dose: 32.0 mg/kg/injection, schedule: Q01DX011 (ip), vehicle: carboxymethylcellulose (CMC)) was 50 % of control and the T/C (dose: 32.0 mg/kg/injection, schedule: Q01DX011 (ip), vehicle: saline) was 108 % of control. For the same molecule, the T/C (dose: 64.0 mg/kg/injection, schedule: Q01DX011 (ip), vehicle: carboxymethylcellulose (CMC)) was 8 % of control, the T/C (dose: 64.0 mg/kg/injection, schedule: Q01DX011 (ip), vehicle: saline) was 7 % of control and the T/C (dose: 96.0 mg/kg/injection, schedule: Q01DX011 (ip), vehicle: saline) was 3 % of control. The T/C (dose: 128.0 mg/kg/injection, schedule: Q01DX011 (ip), vehicle: carboxymethylcellulose (CMC)) was 4 % of control and the T/C (dose: 128.0 mg/kg/injection, schedule: Q01DX011 (ip), vehicle: saline) was 4 % of control.

In the case of `CC/C(=C(/CC)c1ccc(O)cc1)c1ccc(O)cc1`, the T/C (dose: 6.5 mg/kg/injection, schedule: Q01DX011 (sc), vehicle: steriod suspending solution) is reported as 171 % of control and 244 % of control, the T/C (dose: 13.0 mg/kg/injection, schedule: Q01DX011 (sc), vehicle: steriod suspending solution) is reported as 169 % of control and the T/C (dose: 26.0 mg/kg/injection, schedule: Q01DX011 (sc), vehicle: steriod suspending solution) is reported as 119 % of control and 121 % of control. For the same molecule, the T/C (dose: 52.0 mg/kg/injection, schedule: Q01DX011 (sc), vehicle: steriod suspending solution) was 83 % of control.

In the case of `O=C(Nc1ccc(C2=NCCN2)cc1)c1cc(Cl)cc(C(=O)Nc2ccc(C3=NCCN3)cc2)c1`, the T/C [3] is reported as 75 % of control, the T/C [4] is reported as 111 % of control and the T/C [8] is reported as 81 % of control. For the same molecule, the T/C [9] was 114 % of control.

With `OCCc1ccccc1` the T/C [3] was 83 % of control, the T/C [4] was 63 % of control and the T/C [8] was 57 % of control. For the same molecule, the T/C [9] was 51 % of control.

`CS(=O)(=O)OCCCl` was tested, and the T/C (dose: 14.0 mg/kg/injection, schedule: Q01DX011 (ip), vehicle: carboxymethylcellulose (CMC)) was 67 % of control, the T/C (dose: 28.0 mg/kg/injection, schedule: Q01DX011 (ip), vehicle: carboxymethylcellulose (CMC)) was 70 % of control and the T/C (dose: 57.0 mg/kg/injection, schedule: Q01DX011 (ip), vehicle: carboxymethylcellulose (CMC)) was 69 % of control. For the same molecule, the T/C (dose: 115.0 mg/kg/injection, schedule: Q01DX011 (ip), vehicle: carboxymethylcellulose (CMC)) was 60 % of control.

`C1CC[N-]CC1.C1CC[N-]CC1.C1CC[N-]CC1.C1CC[N-]CC1.[Cl][Co][Cl]` was tested, and the T/C [2] was 160 % of control.

With `Cc1c2oc3c(C)ccc(C(=O)N[C@@H]4C(=O)N[C@H](C(C)C)C(=O)N5CCC[C@H]5C(=O)N(C)CC(=O)N(C)[C@@H](C(C)C)C(=O)O[C@H]4C)c3nc-2c(C(=O)N[C@@H]2C(=O)N[C@H](C(C)C)C(=O)N3CCC[C@H]3C(=O)N(C)CC(=O)N(C)[C@@H](C(C)C)C(=O)O[C@H]2C)c(N)c1=O` (I: [aThr][dV]P[Sar][NMeV] / II: [aThr][dV]P[Sar][NMeV]; ester I:1-I:C, II:1-II:C; linker I:N-II:N via Actinocin(9to1)) the T/C (dose: 0.03 mg/kg/injection, schedule: Q01DX011 (ip), vehicle: carboxymethylcellulose (CMC)) was 86 % of control, the T/C (dose: 0.05 mg/kg/injection, schedule: Q01DX011 (ip), vehicle: carboxymethylcellulose (CMC)) was 38 % of control and 49 % of control and the T/C (dose: 0.08 mg/kg/injection, schedule: Q01DX011 (ip), vehicle: carboxymethylcellulose (CMC)) was 29 % of control. The T/C (dose: 6.0 micrograms/kg/injection, schedule: Q01DX011 (ip), vehicle: carboxymethylcellulose (CMC)) was 102 % of control, the T/C (dose: 13.0 micrograms/kg/injection, schedule: Q01DX011 (ip), vehicle: carboxymethylcellulose (CMC)) was 93 % of control and the T/C (dose: 20.0 micrograms/kg/injection, schedule: Q01DX011 (ip), vehicle: carboxymethylcellulose (CMC)) was 55 % of control. The T/C (dose: 33.0 micrograms/kg/injection, schedule: Q01DX011 (ip), vehicle: carboxymethylcellulose (CMC)) was 105 % of control.

With `CC1CCOS(=O)O1` (centres undefined) the T/C [1] was 123 % of control, the T/C [5] was 84 % of control and the T/C [6] was 72 % of control. For the same molecule, the T/C [7] was 32 % of control.

In the case of `O=c1[nH]c2cc(Cl)c(Cl)cc2o1`, the T/C (dose: 19.0 mg/kg/injection, schedule: Q01DX011 (ip), vehicle: carboxymethylcellulose (CMC)) is reported as 90 % of control, the T/C [10] is reported as 81 % of control and the T/C [11] is reported as 82 % of control. For the same molecule, the T/C [12] was 77 % of control.

With `Nc1ccc(C(=O)O)c(O)c1` the T/C (dose: 37.8 mg/kg/injection, schedule: Q01DX011 (ip), vehicle: carboxymethylcellulose (CMC)) was 82 % of control, the T/C (dose: 75.7 mg/kg/injection, schedule: Q01DX011 (ip), vehicle: carboxymethylcellulose (CMC)) was 101 % of control and the T/C (dose: 151.5 mg/kg/injection, schedule: Q01DX011 (ip), vehicle: carboxymethylcellulose (CMC)) was 113 % of control. For the same molecule, the T/C (dose: 303.0 mg/kg/injection, schedule: Q01DX011 (ip), vehicle: carboxymethylcellulose (CMC)) was 95 % of control.

For `NC(=O)N(CCCl)N=O`, the T/C (dose: 1.0 mg/kg/injection, schedule: Q01DX011 (ip), vehicle: carboxymethylcellulose (CMC)) was 104 % of control, the T/C (dose: 2.0 mg/kg/injection, schedule: Q01DX011 (ip), vehicle: carboxymethylcellulose (CMC)) was 101 % of control and the T/C (dose: 4.0 mg/kg/injection, schedule: Q01DX011 (ip), vehicle: carboxymethylcellulose (CMC)) was 78 % of control.

For `CCCSc1ncnc2nc[nH]c12`, the T/C [13] was 64 % of control, the T/C [10] was 64 % of control and the T/C [11] was 45 % of control. The T/C [12] was 8 % of control.

In the case of `Nc1nc(F)nc2c1ncn2C1OC(CO)C(O)C1O` (centres undefined), the T/C (dose: 0.06 mg/kg/injection, schedule: Q01DX011 (ip), vehicle: saline) is reported as 155 % of control, the T/C (dose: 0.12 mg/kg/injection, schedule: Q01DX011 (ip), vehicle: saline) is reported as 120 % of control and the T/C (dose: 0.75 mg/kg/injection, schedule: Q01DX011 (ip), vehicle: saline) is reported as 225 % of control. The T/C (dose: 1.5 mg/kg/injection, schedule: Q01DX011 (ip), vehicle: saline) was 203 % of control and the T/C (dose: 3.0 mg/kg/injection, schedule: Q01DX011 (ip), vehicle: saline) was 199 % of control.

With `CS(=O)(=O)OCCCCCCCCCOS(C)(=O)=O` the T/C [13] was 81 % of control, the T/C [10] was 51 % of control and the T/C [11] was 49 % of control.
